Results from ChEMBL document CHEMBL1140658, “Inhibitors of anthrax lethal factor” (Bioorg Med Chem Lett, 2007).
The source made the active and inactive calls. No cut-off for these calls is given here.

How the values were obtained:
J774.A1 [1] = assay: Inhibition of anthrax lethal factor induced J774A.1 cell death at 85 uM by MTT assay; format: functional, cell-based; settings: Mus musculus
J774.A1 [2] = assay: Cytotoxicity against J774A.1 cells assessed as cell viability at 30 uM after 4 hrs by MTT assay; format: functional, cell-based; settings: Mus musculus
J774.A1 [3] = assay: Inhibition of anthrax lethal factor induced J774A.1 cell death at 20 uM by MTT assay; format: functional, Mus musculus; set-up: scale not given: the % may be the effect or the level left
Lethal factor = target: T1, Lethal factor (Bacillus anthracis, UniProt P15917); assay: Inhibition of anthrax lethal factor by FRET assay
T1 sequence (P15917 whole entry): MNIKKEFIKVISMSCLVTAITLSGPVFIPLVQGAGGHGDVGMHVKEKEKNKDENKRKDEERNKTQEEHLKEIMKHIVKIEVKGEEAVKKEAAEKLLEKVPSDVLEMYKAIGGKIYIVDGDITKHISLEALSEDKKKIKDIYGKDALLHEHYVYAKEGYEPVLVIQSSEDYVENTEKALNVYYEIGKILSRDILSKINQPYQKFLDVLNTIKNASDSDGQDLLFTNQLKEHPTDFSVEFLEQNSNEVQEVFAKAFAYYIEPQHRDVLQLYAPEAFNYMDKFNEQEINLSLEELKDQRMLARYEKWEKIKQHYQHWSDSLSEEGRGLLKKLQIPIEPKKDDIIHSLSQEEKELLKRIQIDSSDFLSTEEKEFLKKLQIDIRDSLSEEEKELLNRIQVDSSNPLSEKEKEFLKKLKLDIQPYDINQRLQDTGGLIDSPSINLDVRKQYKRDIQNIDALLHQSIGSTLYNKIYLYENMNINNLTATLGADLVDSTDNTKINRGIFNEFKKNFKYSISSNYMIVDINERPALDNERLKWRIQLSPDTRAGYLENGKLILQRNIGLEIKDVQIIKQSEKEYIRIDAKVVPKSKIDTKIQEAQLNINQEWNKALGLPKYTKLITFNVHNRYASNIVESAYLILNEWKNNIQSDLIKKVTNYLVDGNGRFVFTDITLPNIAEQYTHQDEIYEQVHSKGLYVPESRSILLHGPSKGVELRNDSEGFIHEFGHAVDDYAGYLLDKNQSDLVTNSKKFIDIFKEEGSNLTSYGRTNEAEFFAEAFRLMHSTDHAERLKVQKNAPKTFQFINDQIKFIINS

[4] = target: T2, Lethal factor (Bacillus anthracis) (UniProt P15917); assay: (§1) Inhibition of anthrax lethal factor upto 100 uM by FRET assay
T2 sequence (whole entry): T1 sequence (P15917 whole entry)

[5] = target: T2, Lethal factor (Bacillus anthracis); assay: as §1; remark: listed apart in the source
J774.A1 [6] = assay: Inhibition of anthrax lethal factor induced J774A.1 cell death by MTT assay; format: functional, cell-based; settings: Mus musculus
J774.A1 [7] = assay: Cytotoxicity against J774A.1 cells assessed as cell viability upto 30 uM after 4 hrs by MTT assay; format: functional, cell-based; settings: Mus musculus

## CCCCCCCC/C=C\CCCCCCCC(=O)NCCc1cc(O)c(O)c(O)c1
J774.A1 [1]
  Activity: inactive
J774.A1 [2]
  Activity: inactive
J774.A1 [3]
  Activity: 46%
Lethal factor
  IC50: 13 µM
  Ki: 1.7 µM

## CCCCCCCC/C=C\CCCCCCCC(=O)NCCc1cc(O)c(O)cc1O
Lethal factor
  IC50: 70 µM

## CCCCCCCC/C=C\CCCCCCCC(=O)NCCc1ccc(OC)c(OC)c1
[4]
  Activity: inactive
[5]
  Activity: inactive

## CCCCCCCC/C=C\CCCCCCCC(=O)NCCc1ccc(O)c(O)c1 [OLEOYL DOPAMINE]
J774.A1 [6]
  IC50: 5 µM
J774.A1 [7]
  Activity: Not toxic
Lethal factor
  IC50: 15 µM
  Ki: 3 µM

## CCCCCCCC/C=C\CCCCCCCC(=O)NCCc1ccc(O)cc1
[4]
  Activity: inactive
[5]
  Activity: inactive

## CCCCCCCC/C=C\CCCCCCCC(=O)NCCc1ccc(C(=O)NO)cc1
Lethal factor
  IC50: 32 µM
  Ki: 6 µM
